Laboratory results as given in PubChem BioAssay (NCI).
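Briefly, cells in 96-well plates were exposed to five compound concentrations for 48 h, and endpoints were estimated by linear interpolation. GI50: concentration for 50% inhibition of growth. Definition used: TGI = concentration required for complete inhibition of growth.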

How the values were obtained:
Assay in all cases: NCI-60 cell line screen, 48 h
[1] = system: 786-0 renal
[2] = system: A498 renal
[3] = system: A549 NSCLC
[4] = system: ACHN renal
[5] = system: BT-549 breast
[6] = system: CAKI-1 renal
[7] = system: CCRF-CEM leukemia
[8] = system: COLO 205 colon
[9] = system: DU-145 prostate
[10] = system: EKVX NSCLC
[11] = system: HCC-2998 colon
[12] = system: HCT-116 colon
[13] = system: HCT-15 colon
[14] = system: HL-60(TB) leukemia
[15] = system: HOP-62 NSCLC
[16] = system: HOP-92 NSCLC
[17] = system: HS 578T breast
[18] = system: HT29 colon
[19] = system: IGROV1 ovarian
[20] = system: K-562 leukemia
[21] = system: KM12 colon
[22] = system: LOX IMVI melanoma
[23] = system: M14 melanoma
[24] = system: MALME-3M melanoma
[25] = system: MCF7 breast
[26] = system: MDA-MB-231 breast
[27] = system: MDA-MB-435
[28] = system: MDA-MB-468 breast
[29] = system: MOLT-4 leukemia
[30] = system: NCI-H226 lung
[31] = system: NCI-H23 lung
[32] = system: NCI-H460 lung
[33] = system: NCI-H522 lung
[34] = system: NCI/ADR-RES ovarian
[35] = system: OVCAR-3 ovarian
[36] = system: OVCAR-4 ovarian
[37] = system: OVCAR-5 ovarian
[38] = system: OVCAR-8 ovarian
[39] = system: PC-3 prostate
[40] = system: RPMI-8226 leukemia
[41] = system: SF-268 CNS
[42] = system: SF-295 CNS
[43] = system: SF-539 CNS
[44] = system: SK-MEL-2 melanoma
[45] = system: SK-MEL-28 melanoma
[46] = system: SK-MEL-5 melanoma
[47] = system: SK-OV-3 ovarian
[48] = system: SN12C renal
[49] = system: SNB-19 CNS
[50] = system: SNB-75 CNS
[51] = system: SR leukemia
[52] = system: SW-620 colon
[53] = system: T-47D breast
[54] = system: TK-10 renal
[55] = system: U251 CNS
[56] = system: UACC-257 melanoma
[57] = system: UACC-62 melanoma
[58] = system: UO-31 renal

Clc1ccc2c(NCCNC34CC5CC(CC(C5)C3)C4)ccnc2c1
GI50 [1]: 2.41 µM | TGI [1]: 5.57 µM | GI50 [2]: 3.09 µM | TGI [2]: 6.1 µM | GI50 [3]: 3.19 µM | TGI [3]: 7.18 µM | GI50 [4]: 2.88 µM | TGI [4]: 5.83 µM | GI50 [5]: 2.67 µM | TGI [5]: 6.03 µM | GI50 [6]: 2.82 µM | TGI [6]: 5.76 µM | GI50 [7]: 5 µM | TGI [7]: 12.9 µM | GI50 [8]: 0.416 µM | TGI [8]: 1 µM | GI50 [9]: 3.57 µM | TGI [9]: 6.72 µM | GI50 [10]: 3.53 µM | TGI [10]: 7.16 µM | GI50 [11]: 0.889 µM | TGI [11]: 3.32 µM | GI50 [12]: 1.43 µM | TGI [12]: 4.91 µM | GI50 [13]: 0.763 µM | TGI [13]: 3.28 µM | GI50 [14]: 3.69 µM | TGI [14]: 8.73 µM | GI50 [15]: 3.7 µM | TGI [15]: 7.41 µM | GI50 [16]: 0.484 µM | TGI [16]: 3.17 µM | GI50 [17]: 2.64 µM | TGI [17]: 6.51 µM | GI50 [18]: 0.675 µM | TGI [18]: 2.71 µM | GI50 [19]: 3.37 µM | TGI [19]: 6.65 µM | GI50 [20]: 0.756 µM | TGI [20]: 4.57 µM | GI50 [21]: 2.87 µM | TGI [21]: 5.82 µM | GI50 [22]: 1.06 µM | TGI [22]: 4.07 µM | GI50 [23]: 0.43 µM | TGI [23]: 0.837 µM | GI50 [24]: 1.25 µM | TGI [24]: 4.24 µM | GI50 [25]: 0.868 µM | TGI [25]: 3.47 µM | GI50 [26]: 2.38 µM | TGI [26]: 5.19 µM | GI50 [27]: 0.566 µM | TGI [27]: 1.6 µM | GI50 [28]: 0.435 µM | TGI [28]: 1.21 µM | GI50 [29]: 3.63 µM | TGI [29]: 10.2 µM | GI50 [30]: 3.04 µM | TGI [30]: 6.5 µM | GI50 [31]: 3.41 µM | TGI [31]: 6.82 µM | GI50 [32]: 3.31 µM | TGI [32]: 6.61 µM | GI50 [33]: 2.9 µM | TGI [33]: 6.34 µM | GI50 [34]: 3.21 µM | TGI [34]: 6.42 µM | GI50 [35]: 3.11 µM | TGI [35]: 6.1 µM | GI50 [36]: 2.95 µM | TGI [36]: 7.8 µM | GI50 [37]: 2.9 µM | TGI [37]: 6.05 µM | GI50 [38]: 2.9 µM | TGI [38]: 6.16 µM | GI50 [39]: 3.1 µM | TGI [39]: 7.77 µM | GI50 [40]: 1.22 µM | TGI [40]: 9.55 µM | GI50 [41]: 3.03 µM | TGI [41]: 6.14 µM | GI50 [42]: 3.47 µM | TGI [42]: 6.67 µM | GI50 [43]: 0.533 µM | TGI [43]: 1.21 µM | GI50 [44]: 3.37 µM | TGI [44]: 6.62 µM | GI50 [45]: 3.15 µM | TGI [45]: 6.2 µM | GI50 [46]: 3.12 µM | TGI [46]: 6.12 µM | GI50 [47]: 4.32 µM | TGI [47]: 8.21 µM | GI50 [48]: 3.24 µM | TGI [48]: 6.34 µM | GI50 [49]: 3.8 µM | TGI [49]: 7.19 µM | GI50 [50]: 3.15 µM | TGI [50]: 6.97 µM | GI50 [51]: 0.622 µM | TGI [51]: 2.31 µM | GI50 [52]: 2.83 µM | TGI [52]: 6 µM | GI50 [53]: 3.33 µM | TGI [53]: 7.75 µM | GI50 [54]: 3.71 µM | TGI [54]: 7.28 µM | GI50 [55]: 1.32 µM | TGI [55]: 4.78 µM | GI50 [56]: 3.24 µM | TGI [56]: 6.62 µM | GI50 [57]: 3.03 µM | TGI [57]: 6.05 µM | GI50 [58]: 2.57 µM | TGI [58]: 5.38 µM
